Measured values as given in ChEMBL document CHEMBL1201862, “PubChem BioAssay data set” (2004).
“And” between values parts separate entries of the source, which are not always exact repeats. Equal values may be shown once.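 Values below derive from 48-hour exposures of cells grown in 96-well plates, with endpoints linearly interpolated between the two concentrations bracketing the appropriate inhibition level. Abbreviation: GI50, concentration required for 50% inhibition of growth.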 The source made the active and inactive calls. No stated cut-off is given here; in the data, active = GI50 up to about 1.1 µM and inactive = higher.

Columns and labels:
Experiment in all cases: NCI-60 cell line screen, 48 h
[1] = test system: U-251
[2] = test system: SF-268
[3] = test system: SK-MEL-5
[4] = test system: NCI-H460
[5] = test system: M14
[6] = test system: Hs-578T
[7] = test system: EKVX
[8] = test system: SK-OV-3
[9] = test system: HOP-92
[10] = test system: SNB-75
[11] = test system: OVCAR-5
[12] = test system: MDA-MB-435
[13] = test system: SN12C
[14] = test system: SR
[15] = test system: SF-539
[16] = test system: HCT-116
[17] = test system: PC-3
[18] = test system: RXF 393
[19] = test system: MCF7
[20] = test system: NCI-H522

| SMILES | GI50 [1] | GI50 [2] | GI50 [3] | GI50 [4] | GI50 [5] | GI50 [6] | GI50 [7] | GI50 [8] | GI50 [9] | GI50 [10] | GI50 [11] | GI50 [12] | GI50 [13] | GI50 [14] | GI50 [15] | GI50 [16] | GI50 [17] | GI50 [18] | GI50 [19] | GI50 [20] |
| --- | --- | --- | --- | --- | --- | --- | --- | --- | --- | --- | --- | --- | --- | --- | --- | --- | --- | --- | --- | --- |
| c1ccc2nc3c(nc2c1)sc1nc2ccccc2n13 | > 100 µM (inactive) | 56.1 µM (inactive) | > 100 µM (inactive) | > 100 µM (inactive) | > 100 µM (inactive) | > 100 µM (inactive) | > 100 µM (inactive) | > 100 µM (inactive) | 57 µM (inactive) | > 100 µM (inactive) | > 100 µM (inactive) | > 100 µM (inactive) | > 100 µM (inactive) | > 100 µM (inactive) | > 100 µM (inactive) | > 100 µM (inactive) | > 100 µM (inactive) | 28.4 µM (inactive) | 0.933 µM (active) | – |
| COc1ccc(C2Oc3c(OC)cc(CCCO)cc3C2CO)cc1OC (stereo not drawn) | > 100 µM (inactive) | > 100 µM (inactive) | – | > 100 µM (inactive) | > 100 µM (inactive) | > 100 µM (inactive) | 61.4 µM (inactive) and 39.9 µM (inactive) | > 100 µM (inactive) | 56.5 µM (inactive) | > 100 µM (inactive) and 77.3 µM (inactive) | > 100 µM (inactive) | 70 µM (inactive) and 93.5 µM (inactive) | > 100 µM (inactive) | – | > 100 µM (inactive) | > 100 µM (inactive) | > 100 µM (inactive) | > 100 µM (inactive) | 27.6 µM (inactive) and 44.7 µM (inactive) | 86.7 µM (inactive) |
| Cc1ccccc1N/C(N)=N/C#N | > 100 µM (inactive) | > 100 µM (inactive) | > 100 µM (inactive) | > 100 µM (inactive) | > 100 µM (inactive) | > 100 µM (inactive) | > 100 µM (inactive) | > 100 µM (inactive) | 97.7 µM (inactive) | > 100 µM (inactive) | > 100 µM (inactive) | > 100 µM (inactive) | > 100 µM (inactive) | > 100 µM (inactive) | > 100 µM (inactive) | > 100 µM (inactive) | > 100 µM (inactive) | > 100 µM (inactive) | > 100 µM (inactive) | – |
| CCNC(=O)Cc1nc2c(O)ncnc2n1C1OC(CO)C(O)C1O (stereo not drawn) | > 100 µM (inactive) | > 100 µM (inactive) | > 100 µM (inactive) | > 100 µM (inactive) | > 100 µM (inactive) | > 100 µM (inactive) | > 100 µM (inactive) | > 100 µM (inactive) | > 100 µM (inactive) | > 100 µM (inactive) | > 100 µM (inactive) | > 100 µM (inactive) | > 100 µM (inactive) | – | > 100 µM (inactive) | > 100 µM (inactive) | > 100 µM (inactive) | > 100 µM (inactive) | > 100 µM (inactive) | > 100 µM (inactive) |
| C[N+]1([O-])CCC(O)(C2CC2)CC1 (stereo not drawn) | > 100 µM (inactive) | > 100 µM (inactive) | > 100 µM (inactive) | – | > 100 µM (inactive) | > 100 µM (inactive) | > 100 µM (inactive) | > 100 µM (inactive) | – | > 100 µM (inactive) | > 100 µM (inactive) | > 100 µM (inactive) | > 100 µM (inactive) | > 100 µM (inactive) | – | > 100 µM (inactive) | > 100 µM (inactive) | > 100 µM (inactive) | > 100 µM (inactive) | – |
| COc1cc2oc(=O)cc(C)c2c(OC)c1OC(C)=O | > 100 µM (inactive) | > 100 µM (inactive) | > 100 µM (inactive) | – | > 100 µM (inactive) | > 100 µM (inactive) | > 100 µM (inactive) | > 100 µM (inactive) | – | > 100 µM (inactive) | > 100 µM (inactive) | > 100 µM (inactive) | > 100 µM (inactive) | > 100 µM (inactive) | – | > 100 µM (inactive) | > 100 µM (inactive) | – | > 100 µM (inactive) | – |
| COc1ccc(/N=[N+](\[O-])c2ccc(OC)cc2)cc1 | > 100 µM (inactive) | > 100 µM (inactive) | > 100 µM (inactive) | > 100 µM (inactive) | > 100 µM (inactive) | > 100 µM (inactive) | > 100 µM (inactive) | > 100 µM (inactive) | > 100 µM (inactive) | > 100 µM (inactive) | > 100 µM (inactive) | > 100 µM (inactive) | – | – | – | > 100 µM (inactive) | > 100 µM (inactive) | > 100 µM (inactive) | > 100 µM (inactive) | 79.8 µM (inactive) |
| COC(=O)C1C2CCCN2OC1(C)CO (stereo not drawn) | > 100 µM (inactive) | > 100 µM (inactive) | > 100 µM (inactive) | > 100 µM (inactive) | > 100 µM (inactive) | > 100 µM (inactive) | > 100 µM (inactive) | > 100 µM (inactive) | – | > 100 µM (inactive) | > 100 µM (inactive) | > 100 µM (inactive) | > 100 µM (inactive) | > 100 µM (inactive) | > 100 µM (inactive) | > 100 µM (inactive) | > 100 µM (inactive) | – | > 100 µM (inactive) | > 100 µM (inactive) |
| O=C1Nc2cccc(Cl)c2/C1=C\c1cccnc1 | 6.47 µM (inactive) | 7.24 µM (inactive) | 11.4 µM (inactive) | 8.22 µM (inactive) | 6.61 µM (inactive) | 14.2 µM (inactive) | 17.6 µM (inactive) | 4.12 µM (inactive) | 27.7 µM (inactive) | 15.5 µM (inactive) | 3.77 µM (inactive) | 5.53 µM (inactive) | 7.82 µM (inactive) | – | 12.4 µM (inactive) | 3.16 µM (inactive) | 14.8 µM (inactive) | 2.83 µM (inactive) | 4.02 µM (inactive) | 9.66 µM (inactive) |
| N#CC1Nc2ccccc2[C@@H](O)C1O (stereo partly drawn) | > 100 µM (inactive) | > 100 µM (inactive) | > 100 µM (inactive) | > 100 µM (inactive) | > 100 µM (inactive) | > 100 µM (inactive) | > 100 µM (inactive) | > 100 µM (inactive) | > 100 µM (inactive) | > 100 µM (inactive) | > 100 µM (inactive) | > 100 µM (inactive) | > 100 µM (inactive) | > 100 µM (inactive) | > 100 µM (inactive) | > 100 µM (inactive) | > 100 µM (inactive) | > 100 µM (inactive) | > 100 µM (inactive) | – |
| Clc1ccc2c(NCCNc3ccnc4cc(Cl)ccc34)ccnc2c1 | 17.9 µM (inactive) | 25.9 µM (inactive) | 22.4 µM (inactive) | 14 µM (inactive) | 16.9 µM (inactive) | 31.9 µM (inactive) | 19.2 µM (inactive) | 17.7 µM (inactive) | 15.2 µM (inactive) | 21.5 µM (inactive) | 16.5 µM (inactive) | 17.8 µM (inactive) | 17.8 µM (inactive) | – | 12 µM (inactive) | 16.9 µM (inactive) | 17 µM (inactive) | 20 µM (inactive) | 19.7 µM (inactive) | 18.3 µM (inactive) |
